According to ChEMBL document CHEMBL5291721, “A preclinical secondary pharmacology resource illuminates target-adverse drug reaction associations of marketed drugs” (Nat Commun, 2023):

Tests used:
[1] = molecular target: T1, Alpha-2A adrenergic receptor (Homo sapiens, UniProt P08913); format: functional, cell-based
T1 sequence (P08913 whole entry): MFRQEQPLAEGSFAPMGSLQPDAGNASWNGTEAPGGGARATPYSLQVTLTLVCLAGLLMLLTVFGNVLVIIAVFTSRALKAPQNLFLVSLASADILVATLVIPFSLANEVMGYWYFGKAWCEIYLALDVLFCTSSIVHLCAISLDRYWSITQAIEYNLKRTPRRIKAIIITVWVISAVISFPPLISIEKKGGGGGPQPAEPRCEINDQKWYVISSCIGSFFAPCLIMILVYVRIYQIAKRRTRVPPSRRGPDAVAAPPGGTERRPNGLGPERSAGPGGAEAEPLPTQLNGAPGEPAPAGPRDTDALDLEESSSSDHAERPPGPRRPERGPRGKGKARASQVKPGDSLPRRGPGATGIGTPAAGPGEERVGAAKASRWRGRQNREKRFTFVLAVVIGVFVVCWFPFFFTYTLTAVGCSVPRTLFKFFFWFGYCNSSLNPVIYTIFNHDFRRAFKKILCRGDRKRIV

Melanocortin receptor 4 = Melanocortin receptor 4 (Homo sapiens, UniProt P32245)
Chain of Melanocortin receptor 4 (P32245 whole entry): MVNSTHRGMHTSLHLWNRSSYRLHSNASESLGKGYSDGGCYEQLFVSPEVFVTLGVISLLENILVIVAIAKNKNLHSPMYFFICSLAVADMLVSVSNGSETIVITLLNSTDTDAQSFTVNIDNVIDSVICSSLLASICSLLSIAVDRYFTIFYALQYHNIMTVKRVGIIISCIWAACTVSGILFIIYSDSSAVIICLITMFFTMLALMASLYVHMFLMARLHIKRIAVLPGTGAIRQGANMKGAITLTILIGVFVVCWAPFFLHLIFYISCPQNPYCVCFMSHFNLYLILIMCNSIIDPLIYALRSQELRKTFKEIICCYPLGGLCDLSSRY

Vasopressin V2 receptor = Vasopressin V2 receptor (Homo sapiens, UniProt P30518)
Chain of Vasopressin V2 receptor (P30518 whole entry): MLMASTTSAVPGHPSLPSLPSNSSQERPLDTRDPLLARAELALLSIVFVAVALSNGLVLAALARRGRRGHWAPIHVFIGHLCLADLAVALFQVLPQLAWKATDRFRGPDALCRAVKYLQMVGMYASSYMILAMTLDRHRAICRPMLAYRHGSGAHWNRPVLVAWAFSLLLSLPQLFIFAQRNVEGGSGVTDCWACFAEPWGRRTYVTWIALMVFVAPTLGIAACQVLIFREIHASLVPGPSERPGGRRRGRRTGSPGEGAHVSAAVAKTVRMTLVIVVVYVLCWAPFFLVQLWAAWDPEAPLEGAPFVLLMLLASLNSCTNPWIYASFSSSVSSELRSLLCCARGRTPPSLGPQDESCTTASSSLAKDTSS

[2] = molecular target: T2, Amine oxidase [flavin-containing] A (Homo sapiens, UniProt P21397); format: functional
T2 sequence (P21397 whole entry): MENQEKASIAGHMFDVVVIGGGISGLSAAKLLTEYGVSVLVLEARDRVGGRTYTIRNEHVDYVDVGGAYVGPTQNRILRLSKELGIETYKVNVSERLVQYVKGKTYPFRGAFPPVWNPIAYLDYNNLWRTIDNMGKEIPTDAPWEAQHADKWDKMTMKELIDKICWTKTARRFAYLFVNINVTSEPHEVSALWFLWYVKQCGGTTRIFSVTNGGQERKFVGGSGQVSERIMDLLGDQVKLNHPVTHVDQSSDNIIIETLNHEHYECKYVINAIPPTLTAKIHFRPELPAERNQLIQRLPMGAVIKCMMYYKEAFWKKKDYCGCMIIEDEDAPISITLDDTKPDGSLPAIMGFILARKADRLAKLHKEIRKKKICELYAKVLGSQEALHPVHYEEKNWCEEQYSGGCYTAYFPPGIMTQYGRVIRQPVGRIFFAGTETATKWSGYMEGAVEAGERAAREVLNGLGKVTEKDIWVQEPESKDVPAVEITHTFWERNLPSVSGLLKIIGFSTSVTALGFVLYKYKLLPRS

[3] = molecular target: T3, Type-1 angiotensin II receptor (Homo sapiens, UniProt P30556)
T3 sequence (P30556 whole entry): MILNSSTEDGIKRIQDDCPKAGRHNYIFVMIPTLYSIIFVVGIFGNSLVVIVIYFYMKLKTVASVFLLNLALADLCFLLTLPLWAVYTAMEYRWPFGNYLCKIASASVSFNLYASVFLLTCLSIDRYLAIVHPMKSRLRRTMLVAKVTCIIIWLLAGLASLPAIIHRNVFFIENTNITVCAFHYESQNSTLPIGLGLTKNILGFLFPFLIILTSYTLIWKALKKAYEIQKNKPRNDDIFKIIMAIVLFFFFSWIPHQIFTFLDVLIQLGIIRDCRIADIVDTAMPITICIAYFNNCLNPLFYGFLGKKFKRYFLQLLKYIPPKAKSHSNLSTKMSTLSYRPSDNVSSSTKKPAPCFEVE

Cannabinoid receptor 1 = Cannabinoid receptor 1 (Homo sapiens, UniProt P21554)
Chain of Cannabinoid receptor 1 (P21554 whole entry): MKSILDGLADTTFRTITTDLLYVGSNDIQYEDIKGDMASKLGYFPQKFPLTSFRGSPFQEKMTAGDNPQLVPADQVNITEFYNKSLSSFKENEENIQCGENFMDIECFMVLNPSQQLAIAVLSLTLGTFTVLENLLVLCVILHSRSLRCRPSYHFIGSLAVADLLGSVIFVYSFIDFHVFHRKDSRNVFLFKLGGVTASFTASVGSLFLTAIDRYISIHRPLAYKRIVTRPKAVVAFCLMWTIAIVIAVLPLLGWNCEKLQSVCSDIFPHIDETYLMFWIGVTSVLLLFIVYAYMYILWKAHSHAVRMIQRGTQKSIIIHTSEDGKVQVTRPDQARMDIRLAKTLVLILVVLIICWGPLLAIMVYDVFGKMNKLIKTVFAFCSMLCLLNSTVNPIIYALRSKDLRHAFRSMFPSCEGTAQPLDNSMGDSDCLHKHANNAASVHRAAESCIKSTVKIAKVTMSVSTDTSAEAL

Histamine H2 receptor = Histamine H2 receptor (Homo sapiens, UniProt P25021); format: functional, cell-based
Chain of Histamine H2 receptor (P25021 whole entry): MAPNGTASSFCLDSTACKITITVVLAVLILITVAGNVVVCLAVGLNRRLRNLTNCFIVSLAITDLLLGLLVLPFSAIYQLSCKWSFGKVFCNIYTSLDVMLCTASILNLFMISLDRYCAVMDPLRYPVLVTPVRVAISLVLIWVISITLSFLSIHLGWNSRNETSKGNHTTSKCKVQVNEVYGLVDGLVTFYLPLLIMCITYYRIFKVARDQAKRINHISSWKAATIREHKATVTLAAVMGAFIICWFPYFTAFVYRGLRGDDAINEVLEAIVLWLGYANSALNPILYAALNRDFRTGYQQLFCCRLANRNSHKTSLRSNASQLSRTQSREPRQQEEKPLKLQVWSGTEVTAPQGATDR

[4] = molecular target: Gamma-aminobutyric acid receptor subunit alpha-1 (Rattus norvegicus, UniProt P62813); format: functional
Chain of Gamma-aminobutyric acid receptor subunit alpha-1 (P62813 whole entry): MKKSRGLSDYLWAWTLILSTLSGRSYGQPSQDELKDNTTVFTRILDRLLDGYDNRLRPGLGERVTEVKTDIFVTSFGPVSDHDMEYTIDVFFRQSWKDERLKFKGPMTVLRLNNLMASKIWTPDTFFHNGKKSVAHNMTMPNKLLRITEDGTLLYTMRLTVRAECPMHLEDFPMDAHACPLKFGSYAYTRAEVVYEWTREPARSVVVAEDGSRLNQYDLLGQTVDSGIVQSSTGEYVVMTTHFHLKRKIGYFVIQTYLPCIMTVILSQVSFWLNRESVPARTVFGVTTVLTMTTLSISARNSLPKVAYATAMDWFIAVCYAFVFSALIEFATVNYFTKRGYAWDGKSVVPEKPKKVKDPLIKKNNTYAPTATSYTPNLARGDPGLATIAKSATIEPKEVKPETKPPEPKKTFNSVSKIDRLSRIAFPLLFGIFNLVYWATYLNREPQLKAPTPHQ

[5] = molecular target: Beta-2 adrenergic receptor (Homo sapiens, UniProt P07550)
Chain of Beta-2 adrenergic receptor (P07550 whole entry): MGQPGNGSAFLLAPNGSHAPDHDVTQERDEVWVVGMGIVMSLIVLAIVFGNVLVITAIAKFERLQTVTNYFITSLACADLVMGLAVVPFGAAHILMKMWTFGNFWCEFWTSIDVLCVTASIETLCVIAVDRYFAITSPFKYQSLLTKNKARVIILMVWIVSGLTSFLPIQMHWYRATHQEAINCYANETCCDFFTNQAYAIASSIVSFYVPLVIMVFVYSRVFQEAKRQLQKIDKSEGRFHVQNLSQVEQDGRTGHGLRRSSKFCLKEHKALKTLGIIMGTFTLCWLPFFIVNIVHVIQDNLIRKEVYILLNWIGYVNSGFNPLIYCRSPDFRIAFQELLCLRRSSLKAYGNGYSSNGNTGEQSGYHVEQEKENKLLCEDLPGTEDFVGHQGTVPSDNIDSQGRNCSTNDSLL

Vasopressin V1a receptor = Vasopressin V1a receptor (Homo sapiens, UniProt P37288)
Chain of Vasopressin V1a receptor (P37288 whole entry): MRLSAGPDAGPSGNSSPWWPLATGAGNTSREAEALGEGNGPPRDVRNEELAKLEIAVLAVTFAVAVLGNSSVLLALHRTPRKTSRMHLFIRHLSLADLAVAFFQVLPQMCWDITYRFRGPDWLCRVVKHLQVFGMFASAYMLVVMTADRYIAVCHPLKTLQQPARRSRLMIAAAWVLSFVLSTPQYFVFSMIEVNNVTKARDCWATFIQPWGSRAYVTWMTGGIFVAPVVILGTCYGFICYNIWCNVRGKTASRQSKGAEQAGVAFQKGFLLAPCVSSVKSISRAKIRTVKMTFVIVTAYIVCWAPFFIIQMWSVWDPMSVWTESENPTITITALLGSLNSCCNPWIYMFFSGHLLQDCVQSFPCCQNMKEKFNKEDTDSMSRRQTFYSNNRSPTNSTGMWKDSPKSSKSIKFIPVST

[6] = molecular target: 5-hydroxytryptamine receptor 2B (Homo sapiens, UniProt P41595); format: functional, cell-based
Chain of 5-hydroxytryptamine receptor 2B (P41595 whole entry): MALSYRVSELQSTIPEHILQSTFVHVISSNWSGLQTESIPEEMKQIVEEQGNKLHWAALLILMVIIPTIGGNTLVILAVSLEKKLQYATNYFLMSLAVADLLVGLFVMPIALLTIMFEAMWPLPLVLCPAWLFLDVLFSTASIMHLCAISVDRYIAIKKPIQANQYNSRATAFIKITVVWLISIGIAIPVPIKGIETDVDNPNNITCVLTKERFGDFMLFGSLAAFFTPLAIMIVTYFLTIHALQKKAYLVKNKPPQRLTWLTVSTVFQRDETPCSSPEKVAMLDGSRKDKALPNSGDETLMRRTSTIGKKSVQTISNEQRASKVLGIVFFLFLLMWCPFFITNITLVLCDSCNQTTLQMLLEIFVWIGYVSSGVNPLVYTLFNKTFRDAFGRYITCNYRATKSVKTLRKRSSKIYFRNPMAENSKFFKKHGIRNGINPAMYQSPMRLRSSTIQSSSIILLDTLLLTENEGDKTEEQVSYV

Mu-type opioid receptor = Mu-type opioid receptor (Homo sapiens, UniProt P35372)
Chain of Mu-type opioid receptor (P35372 whole entry): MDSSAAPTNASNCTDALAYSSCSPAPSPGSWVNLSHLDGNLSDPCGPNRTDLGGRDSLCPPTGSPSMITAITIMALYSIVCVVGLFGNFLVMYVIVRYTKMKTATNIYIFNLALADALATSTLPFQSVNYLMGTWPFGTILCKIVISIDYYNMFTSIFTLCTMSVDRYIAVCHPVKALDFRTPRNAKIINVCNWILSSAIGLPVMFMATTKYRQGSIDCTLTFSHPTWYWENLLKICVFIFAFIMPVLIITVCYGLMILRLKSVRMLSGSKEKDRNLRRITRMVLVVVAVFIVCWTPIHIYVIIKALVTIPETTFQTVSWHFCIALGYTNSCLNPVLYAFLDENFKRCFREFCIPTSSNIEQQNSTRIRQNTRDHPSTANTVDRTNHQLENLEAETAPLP

[7] = molecular target: T4, Muscarinic acetylcholine receptor M1 (Homo sapiens, UniProt P11229); format: functional
T4 sequence (P11229 whole entry): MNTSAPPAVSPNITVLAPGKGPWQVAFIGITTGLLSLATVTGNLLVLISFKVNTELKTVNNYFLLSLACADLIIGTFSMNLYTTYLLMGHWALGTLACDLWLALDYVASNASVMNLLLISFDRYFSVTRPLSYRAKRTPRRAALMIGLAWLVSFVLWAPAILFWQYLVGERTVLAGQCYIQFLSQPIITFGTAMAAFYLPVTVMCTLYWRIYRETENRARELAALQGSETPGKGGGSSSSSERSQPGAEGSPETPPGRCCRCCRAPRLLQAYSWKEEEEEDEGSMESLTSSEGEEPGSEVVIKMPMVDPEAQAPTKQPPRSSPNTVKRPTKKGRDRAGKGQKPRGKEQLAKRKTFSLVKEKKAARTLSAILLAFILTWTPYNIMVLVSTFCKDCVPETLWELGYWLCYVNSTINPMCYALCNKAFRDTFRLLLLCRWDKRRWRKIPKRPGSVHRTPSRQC

[8] = molecular target: T5, Alpha-1A adrenergic receptor (Homo sapiens, UniProt P35348); format: functional, cell-based
T5 sequence (P35348 whole entry): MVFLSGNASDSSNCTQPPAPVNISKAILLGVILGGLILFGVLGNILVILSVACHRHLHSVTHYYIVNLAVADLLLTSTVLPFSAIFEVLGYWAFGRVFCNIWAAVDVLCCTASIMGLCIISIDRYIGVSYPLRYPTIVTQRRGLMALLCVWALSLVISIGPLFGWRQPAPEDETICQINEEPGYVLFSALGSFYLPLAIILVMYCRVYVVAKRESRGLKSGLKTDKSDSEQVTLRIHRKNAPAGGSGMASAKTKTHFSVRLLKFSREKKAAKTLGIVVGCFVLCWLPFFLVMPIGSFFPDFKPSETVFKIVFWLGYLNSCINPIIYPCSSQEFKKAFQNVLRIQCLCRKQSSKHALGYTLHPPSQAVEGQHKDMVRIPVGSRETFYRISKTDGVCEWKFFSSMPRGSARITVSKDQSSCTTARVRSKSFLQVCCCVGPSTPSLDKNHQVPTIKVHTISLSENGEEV
Further: assay procedure not described here.

Work on NCCCC(O)(P(=O)(O)O)P(=O)(O)O [ALENDRONIC ACID] yielded an AC50 [1] greater than 10 µM, an AC50 (Melanocortin receptor 4) greater than 30 µM and an AC50 (Vasopressin V2 receptor) greater than 30 µM. It also gave an AC50 [2] greater than 10 µM, an AC50 [3] greater than 30 µM and an AC50 (Cannabinoid receptor 1) greater than 10 µM. It also gave an AC50 (Histamine H2 receptor) greater than 10 µM, an AC50 [4] greater than 10 µM and an AC50 [5] greater than 10 µM. The AC50 (Vasopressin V1a receptor) was greater than 10 µM.

NS(=O)(=O)c1cc2c(cc1C(F)(F)F)NC(Cc1ccccc1)NS2(=O)=O (centres undefined) [BENDROFLUMETHIAZIDE] gave an AC50 [6] greater than 10 µM, an AC50 [1] greater than 10 µM and an AC50 (Melanocortin receptor 4) greater than 10 µM. The AC50 (Vasopressin V2 receptor) was greater than 10 µM, the AC50 [2] was greater than 10 µM and the AC50 [3] was greater than 10 µM. For the same compound, the AC50 (Cannabinoid receptor 1) was greater than 10 µM, the AC50 (Mu-type opioid receptor) was greater than 30 µM and the AC50 (Histamine H2 receptor) was greater than 10 µM. The AC50 [4] was greater than 10 µM, the AC50 [5] was greater than 10 µM and the AC50 [7] was greater than 10 µM. The AC50 (Vasopressin V1a receptor) was greater than 10 µM.

CC(C)(C)NCC(O)c1cc(Cl)c(N)c(Cl)c1 (centres undefined) [CLENBUTEROL] showed an AC50 [6] greater than 30 µM, an AC50 [8] greater than 30 µM and an AC50 [1] greater than 30 µM. It also gave an AC50 (Melanocortin receptor 4) greater than 30 µM, an AC50 (Vasopressin V2 receptor) greater than 30 µM and an AC50 [2] greater than 30 µM. The AC50 [3] was greater than 30 µM, the AC50 (Cannabinoid receptor 1) was greater than 30 µM and the AC50 (Histamine H2 receptor) was greater than 30 µM. For the same compound, the AC50 [4] was greater than 30 µM.

COC(=O)N[C@@H](C)CNc1nccc(-c2cn(C(C)C)nc2-c2cc(Cl)cc(NS(C)(=O)=O)c2F)n1 [ENCORAFENIB] was tested, and the AC50 [6] was greater than 30 µM, the AC50 [1] was greater than 30 µM and the AC50 (Melanocortin receptor 4) was greater than 30 µM. The AC50 (Vasopressin V2 receptor) was greater than 30 µM, the AC50 [2] was greater than 30 µM and the AC50 [3] was greater than 30 µM. It also gave an AC50 (Cannabinoid receptor 1) greater than 30 µM, an AC50 (Histamine H2 receptor) greater than 30 µM and an AC50 [4] of 23.1 µM. For the same compound, the AC50 [5] was greater than 30 µM, the AC50 [7] was greater than 30 µM and the AC50 (Vasopressin V1a receptor) was greater than 30 µM.

CC(=O)OCC(CCn1cnc2cnc(N)nc21)COC(C)=O [FAMCICLOVIR] gave an AC50 [6] greater than 10 µM, an AC50 [8] greater than 30 µM and an AC50 [1] greater than 10 µM. The AC50 (Melanocortin receptor 4) was greater than 30 µM, the AC50 (Vasopressin V2 receptor) was greater than 30 µM and the AC50 [2] was greater than 10 µM. The AC50 [3] was greater than 30 µM, the AC50 (Cannabinoid receptor 1) was greater than 10 µM and the AC50 (Mu-type opioid receptor) was greater than 30 µM. It also gave an AC50 (Histamine H2 receptor) greater than 10 µM, an AC50 [4] greater than 10 µM and an AC50 [5] greater than 10 µM. It also gave an AC50 (Vasopressin V1a receptor) greater than 10 µM.

For Nc1nc(F)nc2c1ncn2[C@@H]1O[C@H](COP(=O)(O)O)[C@@H](O)[C@@H]1O [FLUDARABINE PHOSPHATE], the AC50 [6] was greater than 30 µM, the AC50 [8] was greater than 30 µM and the AC50 [1] was greater than 30 µM. The AC50 (Melanocortin receptor 4) was greater than 30 µM, the AC50 (Vasopressin V2 receptor) was greater than 30 µM and the AC50 [2] was greater than 30 µM. The AC50 [3] was greater than 30 µM, the AC50 (Cannabinoid receptor 1) was greater than 30 µM and the AC50 (Histamine H2 receptor) was greater than 30 µM. For the same compound, the AC50 [4] was greater than 30 µM, the AC50 [5] was greater than 30 µM and the AC50 [7] was greater than 30 µM. It also gave an AC50 (Vasopressin V1a receptor) greater than 30 µM.

Work on COC1=C(OC)C(=O)C(CCCCCCCCCCO)=C(C)C1=O [IDEBENONE] yielded an AC50 [6] greater than 10 µM, an AC50 [8] greater than 30 µM and an AC50 [1] greater than 10 µM. For the same compound, the AC50 (Melanocortin receptor 4) was greater than 30 µM, the AC50 (Vasopressin V2 receptor) was 10.9 µM and the AC50 [2] was 8.5 µM. The AC50 [3] was greater than 30 µM, the AC50 (Cannabinoid receptor 1) was greater than 10 µM and the AC50 (Mu-type opioid receptor) was greater than 10 µM. It also gave an AC50 (Histamine H2 receptor) greater than 10 µM, an AC50 [4] greater than 10 µM and an AC50 [5] greater than 10 µM. For the same compound, the AC50 (Vasopressin V1a receptor) was greater than 10 µM.
